Values quoted from earlier work as cited in PMC4610388 (European journal of medicinal chemistry, 2015).

Columns and labels:
E. coli DHFR = E. coli DHFR (Escherichia coli, UniProt P0ABQ4); details: previous study from the authors' lab
[1] = test system: mammalian dihydrofolate reductases

Sequence of E. coli DHFR (P0ABQ4 whole entry): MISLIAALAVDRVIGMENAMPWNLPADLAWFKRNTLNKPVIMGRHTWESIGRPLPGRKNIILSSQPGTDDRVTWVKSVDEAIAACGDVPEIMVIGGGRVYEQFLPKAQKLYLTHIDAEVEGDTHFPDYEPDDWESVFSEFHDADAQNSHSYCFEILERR

SMILES | slow-onset tight binding behaviour (E. coli DHFR) | inhibition of mammalian dihydrofolate reductases [1]
Nc1nc(N)c2c(ccc3[nH]ccc32)n1 [NSC339578, 7H–pyrrolo [3,2-f] quinazoline-1,3-diamine] | does not show slow-onset of inhibition | –
Nc1nnc(-c2cccc(Cl)c2Cl)c(N)n1 [Lamotrigine, 6-(2,3-dichlorophenyl)-1,2,4-triazine-3,5-diamine] | – | weakly inhibit
